Experimental data as given in US20240158446A1, “CYCLIC COMPOUND HAVING SELECTIVE INHIBITORY ACTION ON KRAS OVER HRAS AND NRAS” (CHUGAI SEIYAKU KABUSHIKI KAISHA, priority 2021, published 2024).
pKd: −log10 of the molar value.

Experiments:
[1] = target: GDP-bound KRAS wild-type protein (Homo sapiens, UniProt P01116); experiment: Binding to KRAS by surface plasmon resonance (SPR), Single Cycle Kinetics; conditions: SPR, Single Cycle Kinetics, GDP-bound KRAS wild-type protein; read-out: KRAS KD
[2] = target: GDP-bound NRAS wild-type protein (Homo sapiens, UniProt P01111); experiment: Binding to NRAS by surface plasmon resonance (SPR), Single Cycle Kinetics; conditions: ratio of KD for GDP-bound NRAS wild-type protein to KD for KRAS, SPR
[3] = target: GDP-bound HRAS wild-type protein (Homo sapiens, UniProt P01112); experiment: Binding to HRAS by surface plasmon resonance (SPR), Single Cycle Kinetics; conditions: ratio of KD for GDP-bound HRAS wild-type protein to KD for KRAS, SPR
[4] = system: human lung cancer strain NCI-H441; experiment: cells; conditions: NCI-H441, 96 h, read-out: NCI-H441 IC50 (nM), NCI-H441 cell proliferation, 4 days, CellTiter-Glo;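 further: cell proliferation inhibition after four days measured by CellTiter-Glo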

Chain of GDP-bound KRAS wild-type protein (P01116 whole entry): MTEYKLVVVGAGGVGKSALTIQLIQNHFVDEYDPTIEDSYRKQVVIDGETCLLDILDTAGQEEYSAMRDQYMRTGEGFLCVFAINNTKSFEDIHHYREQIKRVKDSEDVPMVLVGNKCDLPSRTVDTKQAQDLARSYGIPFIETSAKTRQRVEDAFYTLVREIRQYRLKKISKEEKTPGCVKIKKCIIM
Chain of GDP-bound HRAS wild-type protein (P01112 whole entry): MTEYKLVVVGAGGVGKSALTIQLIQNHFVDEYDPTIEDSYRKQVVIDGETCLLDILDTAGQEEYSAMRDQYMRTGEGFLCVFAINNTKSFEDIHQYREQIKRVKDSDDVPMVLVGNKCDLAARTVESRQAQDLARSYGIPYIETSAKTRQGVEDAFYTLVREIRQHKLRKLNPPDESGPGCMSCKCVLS
Chain of GDP-bound NRAS wild-type protein (P01111 whole entry): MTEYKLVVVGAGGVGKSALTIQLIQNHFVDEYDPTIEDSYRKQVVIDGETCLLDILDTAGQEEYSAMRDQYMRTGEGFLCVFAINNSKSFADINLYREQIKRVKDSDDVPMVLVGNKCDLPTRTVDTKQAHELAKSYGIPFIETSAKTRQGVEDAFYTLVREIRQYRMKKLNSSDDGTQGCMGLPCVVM

Structure (SMILES)	pKd [1]	NRAS/KRAS (KD ratio) [2]	HRAS/KRAS (KD ratio) [3]	IC50 [4] [nM]
CCO[C@@H]1C[C@H]2C(=O)NC3(CCC3)C(=O)N(C)[C@@H](C3CCCC3)C(=O)N(C)[C@H](C(=O)N(C)CC)CC(=O)N(C)[C@@H](CC)C(=O)N[C@@H]([C@@H](C)CC)C(=O)N(C)CC(=O)N(C)[C@H]3C/C=C\CCN(C3=O)[C@@H](Cc3ccc(C)cc3)C(=O)N(C)CC(=O)N[C@@H](CCc3ccc(C(F)(F)F)c(OC)c3)C(=O)N2C1 [PP1869]	9.89	A (a compound having 10 or more and less than 20 is denoted as A)	A (a compound having 10 or more and less than 20 is denoted as A)	36.4
CC[C@H](C)[C@@H]1NC(=O)[C@H](CC(C)C)N(C)C(=O)C[C@@H](C(=O)N(CC)CC)N(C)C(=O)[C@H](C2CCCC2)N(C)C(=O)C2(CCC2)NC(=O)[C@@H]2C[C@H](C)CN2C(=O)[C@H](CCc2ccc(C(F)(F)F)c(OC)c2)NC(=O)CN(C)C(=O)[C@H](Cc2ccc(C)cc2)N2CC/C=C\C[C@@H](C2=O)N(C)C(=O)CN(C)C1=O [PP1885]	9.64	AA (a compound having 20 or more is denoted as AA)	A (a compound having 10 or more and less than 20 is denoted as A)	18.3
CCO[C@@H]1C[C@H]2C(=O)NC3(CC(C)(C)C3)C(=O)N(C)[C@@H](C3CCCC3)C(=O)N(C)[C@H](C(=O)N(C)C)CC(=O)N(C)[C@@H](CC(C)C)C(=O)N[C@@H]([C@@H](C)CC)C(=O)N(C)CC(=O)N(C)[C@H]3C/C=C\CCN(C3=O)[C@@H](Cc3ccc(C(F)(F)F)cc3)C(=O)N(C)CC(=O)N[C@@H](CCc3cc(F)c(Cl)c(F)c3)C(=O)N2C1 [PP1761]	9.77	A (a compound having 10 or more and less than 20 is denoted as A)	A (a compound having 10 or more and less than 20 is denoted as A)	5.2
CC[C@H](C)[C@@H]1NC(=O)[C@H](C2CC2)N(C)C(=O)C[C@@H](C(=O)N(C)C)N(C)C(=O)[C@H](C2CCCC2)N(C)C(=O)C2(CCC2)N(C)C(=O)[C@@H]2CCCN2C(=O)[C@H](CCc2cc(F)c(C(F)(F)F)c(F)c2)NC(=O)CN(C)C(=O)[C@H](Cc2ccc(C)cc2)N2CC/C=C\C[C@@H](C2=O)N(C)C(=O)CN(C)C1=O [PP1784]	10.08	A (a compound having 10 or more and less than 20 is denoted as A)	B (a compound having 3 or more and less than 10 is denoted as B)	7.8
C#CC[C@H]1C(=O)N[C@@H]([C@@H](C)CC)C(=O)N(C)CC(=O)N(C)[C@H]2C/C=C\CCN(C2=O)[C@@H](Cc2ccc(C(F)(F)F)cc2)C(=O)N(C)CC(=O)N[C@@H](CCc2cc(F)c(C(F)(F)F)c(F)c2)C(=O)N2C[C@H](F)C[C@H]2C(=O)NC2(CC(C)(C)C2)C(=O)N(C)[C@@H](C2CCCC2)C(=O)N(C)[C@H](C(=O)N(C)CCC)CC(=O)N1C [PP1692]	9.96	AA (a compound having 20 or more is denoted as AA)	A (a compound having 10 or more and less than 20 is denoted as A)	4.3
CC[C@H](C)[C@@H]1NC(=O)[C@H](CC(F)F)N(C)C(=O)C[C@@H](C(=O)N(C)CC)N(C)C(=O)[C@H](C2CCCC2)N(C)C(=O)C2(CC(C)(C)C2)NC(=O)[C@@H]2C[C@@H](C)CN2C(=O)[C@H](CCc2ccc(C(F)(F)F)c(Cl)c2)NC(=O)CN(C)C(=O)[C@H](Cc2ccc(C)cc2)N2CC/C=C\C[C@@H](C2=O)N(C)C(=O)CN(C)C1=O [PP1837]	9.70	A (a compound having 10 or more and less than 20 is denoted as A)	A (a compound having 10 or more and less than 20 is denoted as A)	15.6
